Assay results reported in paper PMC4165007 (The Indian Journal of Medical Research, 2014).

Assays:
[1] = test system: purified chymotrypsin; assay: Incubation with purified chymotrypsin; type: in vitro ADME; conditions: data not shown
[2] = biological target: pepsin (Sus scrofa, UniProt P00791); assay: Digestion with simulated gastric fluid; type: in vitro ADME; conditions: SGF pepsin, gastric pH, data not shown
[3] = oral; cited from earlier work
[4] = sublingual; cited from earlier work
[5] = cited from earlier work
[6] = cited from earlier work; remark: listed apart in the source

Sequence of pepsin (P00791 60-385): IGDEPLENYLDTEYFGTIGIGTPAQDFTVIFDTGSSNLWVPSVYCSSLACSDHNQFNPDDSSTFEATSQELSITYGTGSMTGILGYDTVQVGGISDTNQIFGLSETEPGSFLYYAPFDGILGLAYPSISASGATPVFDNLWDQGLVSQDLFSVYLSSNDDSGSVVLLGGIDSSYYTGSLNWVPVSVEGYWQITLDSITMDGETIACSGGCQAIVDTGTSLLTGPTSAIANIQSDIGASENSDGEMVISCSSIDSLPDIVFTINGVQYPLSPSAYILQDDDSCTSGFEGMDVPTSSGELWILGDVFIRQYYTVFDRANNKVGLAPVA

CC[C@H](C)[C@@H]1NC(=O)[C@H](Cc2ccc(O)cc2)NC(=O)[C@@H](N)CSSC[C@@H](C(=O)N2CCC[C@H]2C(=O)N[C@@H](CC(C)C)C(=O)NCC(N)=O)NC(=O)[C@H](CC(N)=O)NC(=O)[C@H](CCC(N)=O)NC1=O [OT, Oxytocin]
effect of incubation with purified chymotrypsin [1]: led to its hydrolysis | OT hydrolysis on increasing the peptic digestion time to 12 h [2]: did not result in OT hydrolysis | bioavailability, given orally to pigs [3]: very poor | bioavailability, given sublingually in humans [4]: very poor | stability during digestion with human gastric juice [5]: stable | half-life of injected OT in the plasma [6]: 5 to 7 min

arginine-vasopressin
stability during digestion with human gastric juice [5]: stable
